Source: patent publication US11369666B2, “Treatment of diseases involving mucin” (NewSouth Innovations Pty Limited, priority 2012, dated 2022)
Values joined by “and” are separate entries in the source; they are usually repeats but may differ in a detail not shown here. Equal values may be shown once.

Columns and labels:
MUC 1 cell lines = experiment: Br and NAC with chemotherapy drugs in MUC 1 cell lines (FIG. 11, 12); type: cell-based; conditions: low doses of Cisplatin, FIG. 11 and 12
Source text: The combination of Br and NAC with chemotherapy drugs in MUC 1 cell lines was investigated (see FIGS. 11 and 12).

[1] = tested on: mesothelioma cell lines PET and YOU (MUC1); experiment: Growth inhibition of MUC1 mesothelioma cell lines (FIG. 9, 10); type: cell-based
Source text: The two mesothelioma cell lines PET and YOU (both of which have MUC1) were investigated. These cell lines are different from cancer cells which secrete mucin externally or that have mucin internally in the cell (signet cell).

human PMP mucin = experiment: Time course for dissolution of human PMP mucin in the laboratory (FIG. 1); type: biochemical; conditions: FIG. 1, agent alone
PMP tumor/mucin = experiment: Breakdown of PMP tumor/mucin specimens from 31 patients in the laboratory; type: biochemical, human; conditions: for Residual mucin weight post treatment: 300 μg/ml Br, 5% NAC or both
Description: Specimens of tumor/mucin were taken from the abdomen and then subjected to treatment in the laboratory with 300 μg/ml Br, 5% NAC, or a mixture of both, for 3 hours at 37° C. The weight of mucin tumor was measured before and after treatment.

[2] = tested on: MKN 45 human gastric mucin secreting cancer cell line; experiment: In vitro growth, SRB assay, 72 hour culture (FIG. 7a); type: cell-based; conditions: MKN 45, SRB assay, agents individually
Description: MKN 45 is a human gastric mucin secreting cancer cell line. The effect of NAC, Br and the combination on in vitro growth (SRB assay, 72 hour culture) was studied.

variant of HT29 (5M21) = experiment: Effect of Br and NAC combination on chemotherapy (FIG. 8); type: cell-based
Source text: Chemo resistance of mucin secreting cancers is common. The experiments in FIG. 8 again relate to a variant of HT29 (5M21). A combination of Br and NAC was effective, whereas the individual agents were not effective.

N.N.[Cl][Pt][Cl] [Cisplatin, cisplatin]
efficacy in MUC 1 cell lines (MUC 1 cell lines): ineffective

CC(=O)N[C@@H](CS)C(=O)O [NAC, N-acetyl cysteine]
growth inhibition of PET and YOU ([1]; 50 mM NAC alone): ineffective
growth inhibition of PET and YOU ([1]; FIG. 9 and 10): no action
effect on dissolution of human PMP mucin (human PMP mucin): no effect
effect of treatment on PMP tumor (Table 1) (PMP tumor/mucin; agent alone, 31 patients): ineffective
reduction of weight of mucin tumor (PMP tumor/mucin; in every case, agent on its own, 300 μg/ml Br or 5% NAC, 3 hours at 37° C.): no (or a very modest) reduction of weight
Residual mucin weight post treatment (PMP tumor/mucin; patient P1, mucin type soft, 3 hours at 37° C.): 1.90 g and 1.67 g
Residual mucin weight post treatment (PMP tumor/mucin; patient P2, mucin type soft, 3 hours at 37° C.): 1.39 g and 1.53 g
Residual mucin weight post treatment (PMP tumor/mucin; patient P3, mucin type soft, 3 hours at 37° C.): 1.80 g and 1.83 g
Residual mucin weight post treatment (PMP tumor/mucin; patient P4, mucin type Semi solid, 3 hours at 37° C.): 1.28 g and 1.53 g
Residual mucin weight post treatment (PMP tumor/mucin; patient P5, mucin type Hard, 3 hours at 37° C.): 1.69 g and 1.79 g
Residual mucin weight post treatment (PMP tumor/mucin; patient P6, mucin type soft, 3 hours at 37° C.): 2.13 g and 2.08 g
Residual mucin weight post treatment (PMP tumor/mucin; patient P7, mucin type soft, 3 hours at 37° C.): 2.13 g and 2.08 g
Residual mucin weight post treatment (PMP tumor/mucin; patient P8, mucin type soft, 3 hours at 37° C.): 0.95 g and 1.61 g
Residual mucin weight post treatment (PMP tumor/mucin; patient P9, mucin type Signet ring carcinoma, 3 hours at 37° C.): 1.42 g and 1.56 g
Residual mucin weight post treatment (PMP tumor/mucin; patient P10, mucin type Hard, 3 hours at 37° C.): 1.82 g and 1.73 g
Residual mucin weight post treatment (PMP tumor/mucin; patient P12, mucin type Semi Hard, 3 hours at 37° C.): 1.81 g and 1.94 g
Residual mucin weight post treatment (PMP tumor/mucin; patient P13, mucin type Hard, 3 hours at 37° C.): 1.73 g and 1.43 g
Residual mucin weight post treatment (PMP tumor/mucin; patient P14, mucin type soft, 3 hours at 37° C.): 1.60 g and 1.57 g
Residual mucin weight post treatment (PMP tumor/mucin; patient P15, mucin type soft, 3 hours at 37° C.): 1.36 g and 1.37 g
Residual mucin weight post treatment (PMP tumor/mucin; patient P16, mucin type soft, 3 hours at 37° C.): 1.69 g and 1.62 g
Residual mucin weight post treatment (PMP tumor/mucin; patient P17, Scraped mucin from mucoid tissues, 3 hours at 37° C.): 2.64 g
Residual mucin weight post treatment (PMP tumor/mucin; patient P18, mucin type soft, 3 hours at 37° C.): 2.31 g and 2.24 g
Residual mucin weight post treatment (PMP tumor/mucin; patient P19, Semi soft Mucin deposits on tissue, 3 hours at 37° C.): 1.79 g and 1.89 g
Residual mucin weight post treatment (PMP tumor/mucin; patient P20, mucin type soft, 3 hours at 37° C.): 2.34 g and 2.36 g
Residual mucin weight post treatment (PMP tumor/mucin; patient P21, mucin type soft, 3 hours at 37° C.): 2.38 g and 1.74 g
Residual mucin weight post treatment (PMP tumor/mucin; patient P22, Adeno-carcinoma, 3 hours at 37° C.): 1.74 g and 1.64 g
Residual mucin weight post treatment (PMP tumor/mucin; patient P23, mucin type Semi solid, 3 hours at 37° C.): 1.76 g
Residual mucin weight post treatment (PMP tumor/mucin; patient P24, Mucin deposits on tissue, 3 hours at 37° C.): 1.64 g and 1.46 g
Residual mucin weight post treatment (PMP tumor/mucin; patient P25, mucin type Hard, 3 hours at 37° C.): 1.49 g and 1.37 g
Residual mucin weight post treatment (PMP tumor/mucin; patient P26, mucin type Hard, 3 hours at 37° C.): 1.23 g and 1.26 g
Residual mucin weight post treatment (PMP tumor/mucin; patient P27, mucin type soft, 3 hours at 37° C.): 1.92 g and 2.03 g
Residual mucin weight post treatment (PMP tumor/mucin; patient P28, mucin type soft, 3 hours at 37° C.): 1.48 g
Residual mucin weight post treatment (PMP tumor/mucin; patient P29, mucin type soft, 3 hours at 37° C.): 1.21 g
Residual mucin weight post treatment (PMP tumor/mucin; patient P30, mucin type soft, 3 hours at 37° C.): 1.26 g and 1.16 g
Residual mucin weight post treatment (PMP tumor/mucin; patient P31, mucin type Hard, 3 hours at 37° C.): 1.56 g and 1.84 g
effect on in vitro growth [2]: no or little effect
efficacy against 5M21 (variant of HT29 (5M21)): not effective
